# Data from US8569336B2, “Compounds for the treatment of inflammatory disorders” (priority 2008, dated 2013).
# Where two headings read alike, the source gives them in different places.
# What was measured:
# [1] = test system: TNF-α production from human whole blood; test: Inhibition of TNF-α production from human whole blood (hWBA), LPS stimulated, ELISA; assay type: cell-based; conditions: Homo sapiens, TNF-α by ELISA, read-out: hWBA (IC50)
# [2] = molecular target: T1, purified catalytic domain of recombinant human TACE (rhTACEc) (Homo sapiens, UniProt P78536, N452Q/S266A); test: TACE kinetic assay: cleavage of internally quenched peptide substrate TNF-FRET 2 (Ki); assay type: biochemical; conditions: TNF-FRET 2 substrate
# T1 construct: 6xHis (C); made in house; host or cells: baculovirus/Hi5 insect cells
# T1 sequence (P78536 215-477 S266A/N452Q): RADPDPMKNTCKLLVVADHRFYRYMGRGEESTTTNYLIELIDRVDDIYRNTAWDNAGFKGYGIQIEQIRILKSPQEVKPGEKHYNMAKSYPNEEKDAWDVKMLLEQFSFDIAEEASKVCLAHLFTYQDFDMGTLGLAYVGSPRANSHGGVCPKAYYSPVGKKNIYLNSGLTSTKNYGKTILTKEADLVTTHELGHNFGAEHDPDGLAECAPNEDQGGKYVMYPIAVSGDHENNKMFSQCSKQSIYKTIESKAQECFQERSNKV
# [3] = 3.5 h, human whole blood diluted 1:1, LPS stimulated, 3.5 h
# [4] = LPS-stimulated human whole blood
# [5] = human whole blood diluted 1:1, LPS stimulated
SMILES,"IC50 [1, 3]",Ki ([2]; read-out: Ki),"IC50 [1, 4]","IC50 [1, 5]",Ki ([2]; Ki)
COc1ccc2c(c1)C(=O)N(C[C@@]1(c3cc4cc(-c5cnccc5O)ccc4o3)NC(=O)NC1=O)C2 [Compound 2199],7.36 µM,1.96 nM,–,–,–
COc1ccc2c(c1)C(=O)N(C[C@@]1(c3cc4c(C)nc(N)nc4o3)NC(=O)NC1=O)C2 [Compound 2299],–,–,–,0.284 µM,0.762 nM
COc1ccc2c(c1)C(=O)N(C[C@@]1(c3cc4c(o3)CCN(C(=O)Nc3cccnc3)C4)NC(=O)NC1=O)C2 [Compound 321],–,701 nM,≥ 1000 µM,–,–
COc1ccc2c(c1)C(=O)N(C[C@@]1(c3cc4c(C)nc(O)c(C(=O)O)c4o3)NC(=O)NC1=O)C2 [Compound 2436],–,–,–,2.39 µM,2.41 nM
COc1ccc2c(c1)C(=O)N(C[C@@]1(c3cc4nc(N(CCN(C)C)c5cn[nH]c5)ccc4o3)NC(=O)NC1=O)C2 [Compound 1704],–,0.86 nM,0.274 µM,–,–
CCN1CCN(c2cc3oc([C@]4(CN5Cc6ccc(OC)c(F)c6C5=O)NC(=O)NC4=O)cc3nc2C)CC1 [Compound 1920],–,2.16 nM,0.674 µM,–,–
COc1ccc2c(c1)C(=O)N(C[C@@]1(c3cc4nc(Nc5ccc(-c6cn[nH]c6)cn5)ccc4o3)NC(=O)NC1=O)C2 [Compound 1732],–,1.91 nM,0.333 µM,–,–
COc1ccc2c(c1)C(=O)N(C[C@@]1(c3cc4cc(/C(=N\O)N5CC[C@H](N(C)C)C5)ccc4o3)NC(=O)NC1=O)C2 [Compound 2488],–,0.8 nM,–,0.321 µM,–
COc1ccc2c(c1)C(=O)N(C[C@@]1(c3cc4cc(CC(N)=O)ccc4o3)NC(=O)NC1=O)C2 [Compound 2209],0.542 µM,2.51 nM,–,–,–
COc1ccc2c(c1)C(=O)N(CC1([C@H]3C[C@H](c4ccccc4)C3)NC(=O)NC1=O)C2 (stereo partly drawn) [Compound 1915],–,9.99 nM,100 µM,–,–
COc1ccc2c(c1)C(=O)N(C[C@@]1(c3cc4nc(-c5nnn[nH]5)ccc4o3)NC(=O)NC1=O)C2 [Compound 2167],0.289 µM,–,–,–,0.351 nM
CNCc1ccc2oc([C@]3(CN4Cc5ccc(OC)cc5C4=O)NC(=O)NC3=O)cc2c1 [Compound 2185],1.04 µM,3.99 nM,–,–,–
COc1ccc2c(c1)C(=O)N(C[C@@]1(c3cc4cc(C(=O)NCCN(C)CCN)c(F)cc4o3)NC(=O)NC1=O)C2 [Compound 1279],0.504 µM,1 nM,–,–,–
COc1ccc2c(c1F)C(=O)N(C[C@@]1(c3cc4nc(N(CCN(C)C)c5cn[nH]c5)ccc4o3)NC(=O)NC1=O)C2 [Compound 1714],–,0.85 nM,0.271 µM,–,–
COCCN1CCN(c2ccc3oc([C@]4(CN5Cc6ccc(OC)cc6C5=O)NC(=O)NC4=O)cc3n2)CC1 [Compound 1500],–,1.1 nM,0.333 µM,–,–
COc1ccc2c(c1)C(=O)N(C[C@@]1(c3cc4c(N5CCNC(=O)C5)nccc4o3)NC(=O)NC1=O)C2 [Compound 2280],–,1.1 nM,–,0.34 µM,–
COc1ccc2c(c1)C(=O)N(C[C@@]1(c3cc4cc(C(=O)N(C)CCN(C)C)c(F)cc4o3)NC(=O)NC1=O)C2 [Compound 1275],0.441 µM,0.88 nM,–,–,–
COc1ccc2c(c1)C(=O)N(C[C@@]1(c3cc4cc(C(=O)NCCNC(C)C)c(F)cc4o3)NC(=O)NC1=O)C2 [Compound 1276],0.251 µM,1.2 nM,–,–,–
COc1ccc2c(c1)C(=O)N(C[C@@]1(c3cc4c(C(C)=O)nccc4o3)NC(=O)NC1=O)C2 [Compound 2448],–,0.8 nM,–,0.839 µM,–
COc1ccc2c(c1)C(=O)N(C[C@@]1(c3cc4nc(-c5cncc(C#N)c5)ccc4o3)NC(=O)NC1=O)C2 [Compound 1529],–,0.8 nM,3.66 µM,–,–

# Further compounds by falling Ki ([2]; read-out: Ki), results first:
"IC50 [1, 3]",Ki ([2]; read-out: Ki),"IC50 [1, 4]","IC50 [1, 5]",SMILES,Ki ([2]; Ki)
–,0.76 nM,–,1.99 µM,CCNC(=O)NCc1ccc2oc([C@]3(CN4Cc5ccc(OC)cc5C4=O)NC(=O)NC3=O)cc2c1 [Compound 2485],–
–,0.75 nM,0.659 µM,–,COc1ccc2c(c1)C(=O)N(C[C@@]1(c3oc4cccnc4c3-c3ncccc3O)NC(=O)NC1=O)C2 [Compound 1940],–
–,0.67 nM,–,0.35 µM,COc1ccc2c(c1)C(=O)N(C[C@@]1(c3cc4cc(C(=NO)N5CCCN(C)CC5)ccc4o3)NC(=O)NC1=O)C2 [Compound 2452],–
1.89 µM,0.637 nM,–,–,COc1ccc2c(c1)C(=O)N(C[C@@]1(c3cc4cc(-c5cnccc5OC)ccc4o3)NC(=O)NC1=O)C2 [Compound 2198],–
–,0.6 nM,–,0.3 µM,COCCNC(=O)c1ccc2cc([C@]3(CN4Cc5ccc(OC)cc5C4=O)NC(=O)NC3=O)oc2c1 [Compound 2413],–
–,0.6 nM,0.097 µM,–,COc1ccc2c(c1F)C(=O)N(C[C@@]1(c3cc4nc(N5CCNCC5)ccc4o3)NC(=O)NC1=O)C2 [Compound 1725],–
–,0.6 nM,1.29 µM,–,COc1ccc2c(c1)C(=O)N(C[C@@]1(c3cc4nc(-c5cnc(N6CCCC6)nc5)ccc4o3)NC(=O)NC1=O)C2 [Compound 1505],–
–,0.59 nM,0.609 µM,–,COc1ccc2c(c1)C(=O)N(C[C@@]1(c3cc4ncc(CO)cc4o3)NC(=O)NC1=O)C2 [Compound 1941],–
0.21 µM,0.577 nM,–,–,COc1ccc2c(c1)C(=O)N(C[C@@]1(c3cc4nc(N5CCC(O)CC5)ccc4o3)NC(=O)NC1=O)C2 [Compound 2172],–
0.677 µM,0.564 nM,–,–,COc1ccc2c(c1)C(=O)N(C[C@@]1(c3cc4cc(N5C(=O)CNC5=O)ccc4o3)NC(=O)NC1=O)C2 [Compound 2225],–
–,0.556 nM,–,0.321 µM,COc1ccc2c(c1)C(=O)N(C[C@@]1(c3cc4ncc(C(=O)NC5CC5)cc4o3)NC(=O)NC1=O)C2 [Compound 2460],–
–,0.54 nM,0.742 µM,–,COc1ccc2c(c1)C(=O)N(C[C@@]1(c3cc4ncc(-c5ncc[nH]5)cc4o3)NC(=O)NC1=O)C2 [Compound 1943],–
0.345 µM,0.539 nM,–,–,COc1ccc2c(c1)C(=O)N(C[C@@]1(c3cc4cc(CN5CCNCC5)ccc4o3)NC(=O)NC1=O)C2 [Compound 2186],–
0.667 µM,0.51 nM,–,–,COc1ccc2c(c1)C(=O)N(C[C@@]1(c3cc4cc(C(=O)O)c(F)cc4o3)NC(=O)NC1=O)C2 [Compound 1272],–
–,0.5 nM,–,0.256 µM,COc1ccc2c(c1)C(=O)N(C[C@@]1(c3cc4cc(C(=O)NO)ccc4o3)NC(=O)NC1=O)C2 [Compound 2402],–
–,0.5 nM,1.34 µM,–,COc1ccc2c(c1F)C(=O)N(C[C@@]1(c3cc4nc(C)c(Br)cc4o3)NC(=O)NC1=O)C2 [Compound 1917],–
–,0.444 nM,0.536 µM,–,COc1ccc2c(c1F)C(=O)N(C[C@@]1(c3ccc(-c4cccnc4)o3)NC(=O)NC1=O)C2 [Compound 314],–
–,0.429 nM,–,0.575 µM,COc1ccc2c(c1)C(=O)N(C[C@@]1(c3cc4cnc(C5CC5)cc4o3)NC(=O)NC1=O)C2 [Compound 2287],–
0.313 µM,0.41 nM,–,–,COc1ccc2c(c1F)C(=O)N(C[C@@]1(c3cc4c(Cl)nccc4o3)NC(=O)NC1=O)C2 [Compound 2216],–
–,0.4 nM,0.579 µM,–,COc1ccc2c(c1F)C(=O)N(C[C@@]1(c3cc4nc(-c5cccc(C#N)c5)ccc4o3)NC(=O)NC1=O)C2 [Compound 1504],–
3.3 µM,0.39 nM,–,–,COc1ccc2c(c1)C(=O)N(C[C@@]1(c3cc4cc(C(=O)NCCCC[C@H](NC(=O)CCCC[C@@H]5SCC6NC(=O)NC65)C(=O)O)c(F)cc4o3)NC(=O)NC1=O)C2 (stereo partly drawn) [Compound 1283],–
–,0.35 nM,–,0.6 µM,COc1ccc2c(c1)C(=O)N(C[C@@]1(c3cc4cc(S(N)(=O)=O)ccc4o3)NC(=O)NC1=O)C2 [Compound 2478],–
–,0.33 nM,–,1.87 µM,CCOC(=O)c1ccc2cc([C@]3(CN4Cc5ccc(OC)cc5C4=O)NC(=O)NC3=O)oc2c1 [Compound 2409],–
–,0.3 nM,0.169 µM,–,COc1ccc2c(c1F)C(=O)N(C[C@@]1(c3cc4nc(N5CC[C@@H](O)C5)ccc4o3)NC(=O)NC1=O)C2 [Compound 1521],–
–,0.22 nM,0.231 µM,–,COc1ccc2c(c1F)C(=O)N(C[C@@]1(c3cc4c(ccc5sc(N)nc54)o3)NC(=O)NC1=O)C2 [Compound 1741],–
–,0.185 nM,–,0.154 µM,COc1ccc2c(c1)C(=O)N(C[C@@]1(c3cc4c(-c5cn[nH]c5)nccc4o3)NC(=O)NC1=O)C2 [Compound 2283],–
–,0.071 nM,4.53 µM,–,COc1ccc2c(c1)C(=O)N(C[C@@]1(c3cc4c(ccc5sc(C)nc54)o3)NC(=O)NC1=O)C2 [Compound 1739],–
–,0.0608 nM,0.943 µM,–,COc1ccc2c(c1F)C(=O)N(C[C@@]1(c3cc4cc(C)nc(C)c4o3)NC(=O)NC1=O)C2 [Compound 203],–
